According to patent US8859580B2 (Boehringer Ingelheim International GmbH, priority 2007, dated 2014):
Like-named read-outs stand apart in the source and are kept apart here.

Biological target: T1, 11β-HSD1 (Homo sapiens, UniProt P28845)
T1 construct: detecting cortisol generated from cortisterone by human liver microsomes; from tissue; host or cells: human liver microsomes
Experiment: In vitro inhibition of 11β-HSD1, HTRF detection of cortisol generated from cortisone by human liver microsomes
Format: biochemical
Settings: 1 hour at 37° C., pH 6.0, NADPH 200 μM, cortisone 80 nM, inhibition relative to carbenoxolone signal
Outline: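 Cortisol formed from cortisone by human liver microsomes quantified by competitive HTRF immunoassay (XL665-cortisol, Eu-cryptate anti-cortisol antibody), 2 h detection, Em665/Em615 ratio converted via cortisol calibration curve. Percent inhibition relative to carbenoxolone signal; IC50 from curves.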

T1 sequence (P28845 whole entry): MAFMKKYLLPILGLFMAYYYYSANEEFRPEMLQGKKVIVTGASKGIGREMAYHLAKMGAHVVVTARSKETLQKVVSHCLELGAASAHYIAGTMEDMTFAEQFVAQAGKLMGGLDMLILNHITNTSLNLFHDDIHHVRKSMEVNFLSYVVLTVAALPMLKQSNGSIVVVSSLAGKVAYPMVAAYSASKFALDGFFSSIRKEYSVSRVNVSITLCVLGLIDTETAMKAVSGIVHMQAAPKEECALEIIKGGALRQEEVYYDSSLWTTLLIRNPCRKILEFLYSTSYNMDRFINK

Compound | IC50 (11β-HSD IC50 (nM)) [nM] | IC50 (read-out: 11β-HSD IC50) [nM]
CC1(C)[C@H]2Cc3c(ccc4[nH]cnc34)[C@]1(C)CCN2C(=O)c1ccc2nc[nH]c2c1 [Example 191, (3H-Benzoimidazol-5-yl)-[(5R,9S)-4,5,6,7,8,9-hexahydro-2,10,12,12-trimethyl-5,9-methano-1H-imidazo[5,4-j][3]benzazocin-6-yl]-methanone] | 571 | 
CC1(C)[C@H]2Cc3c(O)cccc3[C@]1(C)CCN2C(=O)c1cc(-c2ccccc2)n[nH]1 [Example 221, [(2R,6S)-10-Hydroxy-6,11,11-trimethyl-1,2,5,6-tetrahydro-4H-2,6-methano-benzo[d]azocin-3-yl]-(5-phenyl-2H-pyrazol-3-yl)-methanone] | 2430 | 
CN(C)S(=O)(=O)c1ccc2c(c1)[C@]1(C)CCN(C(=O)c3ccc4nc[nH]c4c3)[C@H](C2)C1(C)C [Example 201, (2R,6S)-3-(3H-Benzoimidazole-5-carbonyl)-6,11,11-trimethyl-1,2,3,4,5,6-hexahydro-2,6-methano-benzo[d]azocine-8-sulfonic acid dimethylamide] | 53 | 
CC1(C)[C@H]2Cc3c(O)cccc3[C@]1(C)CCN2C(=O)c1ccc(Cn2cncn2)cc1 [Example 131, [(2R,6S)-10-Hydroxy-6,11,11-trimethyl-1,2,5,6-tetrahydro-4H-2,6-methano-benzo[d]azocin-3-yl]-(4-[1,2,4]triazol-1-ylmethyl-phenyl)-methanone] | 361 | 
CC[C@@H]1[C@H]2Cc3ccc(O)cc3[C@]1(CC)CCN2C(=O)c1ccc2nc[nH]c2c1 (racemic) [Example 85, (3H-Benzoimidazol-5-yl)-(6,11-diethyl-8-hydroxy-1,2,5,6-tetrahydro-4H-2,6-methano-benzo[d]azocin-3-yl)-methanone] | 89 | 
CC(=O)NCc1ccc(C(=O)N2CC[C@@]3(C)c4cccc(O)c4C[C@@H]2C3(C)C)cc1 [Example 132, N-{4-[(2R,6S)-10-Hydroxy-6,11,11-trimethyl-1,2,5,6-tetrahydro-4H-2,6-methano-benzo[d]azocine-3-carbonyl]-benzyl}-acetamide] | 958 | 
CC1(C)[C@H]2Cc3ccccc3[C@]1(C)CCN2C(=O)c1ccc(N)cc1 [Example 286, (4-Amino-phenyl)-[(2R,6S)-6,11,11-trimethyl-1,2,5,6-tetrahydro-4H-2,6-methano-benzo[d]azocin-3-yl]-methanone] | 47 | 
CCOC(=O)c1ccc2c(c1)CC1N(C(=O)c3ccc4nc[nH]c4c3)CCC2(C)C1(C)C (stereo not shown) [Example 97, 3-(1H-Benzoimidazole-5-carbonyl)-6,11,11-trimethyl-1,2,3,4,5,6-hexahydro-2,6-methano-benzo[d]azocine-9-carboxylic acid ethyl ester] | 1130 | 
Cc1ccccc1C(=O)N1CCC2(C)c3cc(O)ccc3CC1C2C (stereo not shown) [Example 106, (8-Hydroxy-6,11-dimethyl-1,2,5,6-tetrahydro-4H-2,6-methano-benzo[d]azocin-3-yl)-o-tolyl-methanone] | 2960 | 
C[C@@H]1[C@H]2Cc3ccc(-c4ccccc4)cc3[C@]1(C)CCN2C(=O)c1ccc2nc[nH]c2c1 [Example 249, (3H-Benzoimidazol-5-yl)-[(2R,6R,11S)-6,11-dimethyl-8-phenyl-1,2,5,6-tetrahydro-4H-2,6-methano-benzo[d]azocin-3-yl)-methanone] | 265 | 
Cc1nc2c3c(ccc2o1)C[C@@H]1[C@@H](C)[C@@]3(C)CCN1C(=O)c1ccc2nc[nH]c2c1 [Example 300, (3H-Benzoimidazol-5-yl)-[(7R,11R,12S)-6,7,8,9,10,11-hexahydro-2,11,12-trimethyl-6,10-methano-oxazolo[4,5-h][3]benzazocin-8-yl]-methanone] | 115 | 
CC1(C)[C@H]2Cc3cc4nccnc4cc3[C@]1(C)CCN2C(=O)c1ccc2nc[nH]c2c1 [Example 235, (3H-Benzoimidazol-5-yl)-[(7R,11S)-6,7,8,9,10,11-hexahydro-11,13,13-trimethyl-6,10-methano-pyrazino[2,3-i][3]benzazocin-8-yl]-methanone] | 95 | 
C[C@@H]1[C@H]2Cc3ccc(C(N)=O)cc3[C@]1(C)CCN2C(=O)c1ccc2nc[nH]c2c1 [Example 157, (2R,6R,11S)-3-(3H-Benzoimidazole-5-carbonyl)-6,11-dimethyl-1,2,3,4,5,6-hexahydro-2,6-methano-benzo[d]azocine-8-carboxylic acid amide] | 335 | 
O=C(c1ccc2nc[nH]c2c1)N1CCC2CC1Cc1ccc(O)cc12 (stereo not shown) [Example 55, (3H-Benzoimidazol-5-yl)-(8-hydroxy-1,2,5,6-tetrahydro-4H-2,6-methano-benzo[d]azocin-3-yl)-methanone] | 746 | 
COc1ccc2c(c1-n1cccc1)[C@]1(C)CCN(C(=O)c3ccc4nc[nH]c4c3)[C@H](C2)[C@H]1C [Example 270, (3H-Benzoimidazol-5-yl)-[(2R,6R,11S)-8-methoxy-6,11-dimethyl-7-pyrrol-1-yl-1,2,5,6-tetrahydro-4H-2,6-methano-benzo[d]azocin-3-yl)-methanone] | 99 | 
O=C(c1ccc2nc[nH]c2c1)N1CCC2CC1Cc1c2[nH]c2ccccc12 (stereo not shown) [Example 245, (3H-Benzoimidazol-5-yl)-(2,3,4,5,6,7-hexahydro-2,6-methano-azocino[5,4-b]indol-3-yl)-methanone] |  | 257
CC1(C)[C@H]2Cc3c(O)cccc3[C@]1(C)CCN2C(=O)c1csc2ccccc12 [Example 217, Benzo[b]thiophen-3-yl-[(2R,6S)-10-hydroxy-6,11,11-trimethyl-1,2,5,6-tetrahydro-4H-2,6-methano-benzo[d]azocin-3-yl]-methanone] | 410 | 
CC1C2c3ccc(O)cc3CC2N(C(=O)c2ccc3nc[nH]c3c2)CC1(C)C (stereo not shown) [Example 330, (3H-Benzoimidazol-5-yl)-(7-hydroxy-3,3,4-trimethyl-2,3,4,4a,9,9a-hexahydro-indeno[2,1-b]pyridin-1-yl)-methanone] |  | 44
CC1(C)[C@H]2Cc3ccc(O)cc3[C@]1(C)CCN2C(=O)c1ccc2nc[nH]c2c1 [Example 80, (3H-Benzoimidazol-5-yl)-[(2R,6S)-8-hydroxy-6,11,11-trimethyl-1,2,5,6-tetrahydro-4H-2,6-methano-benzo[d]azocin-3-yl]-methanone] | 40 | 
Cc1nc(-c2ccc3c(c2)CC2N(C(=O)c4ccc5[nH]cnc5c4)CCC3(C)C2(C)C)no1 (stereo not shown) [Example 176, (1H-Benzoimidazol-5-yl)-[6,11,11-trimethyl-9-(5-methyl-[1,2,4]oxadiazol-3-yl)-1,2,5,6-tetrahydro-4H-2,6-methano-benzo[d]azocin-3-yl]-methanone] | 603 | 
Cc1cnc(-c2nc3cc4c(cc3[nH]2)[C@]2(C)CCN(C(=O)c3ccc5nc[nH]c5c3)[C@H](C4)C2(C)C)cn1 [Example 277, (3H-Benzoimidazol-5-yl)-[(6R,10S)-5,6,7,8,9,10-hexahydro-10,12,12-trimethyl-2-(5-methyl-pyrazin-2-yl)-6,10-methano-imidazo[5,4-i][3]benzazocin-7-yl]-methanone] | 34 | 
C[C@@H]1[C@@H]2Cc3ccc(O)cc3[C@@]1(C)CCN2C(=O)c1ccc2nc[nH]c2c1 [Example 54, (3H-Benzoimidazol-5-yl)-(8-hydroxy-6,11-dimethyl-1,2,5,6-tetrahydro-4H-2,6-methano-benzo[d]azocin-3-yl)-methanone] | 529 | 
